Measured values taken from patent US20240148821A1, “PHARMACEUTICAL USE OF CYCLIC PEPTIDE COMPOUND” (CHUGAI SEIYAKU KABUSHIKI KAISHA, priority 2021, published 2024).
Bridge positions count the residues as written; N and C are the ends. Square brackets hold non-standard residues; d marks the D form. Peptide text beside a SMILES is read from it. * marks the point of attachment. hPhe(3,5-F2-4-CF3) = N[C@@H](CCc1cc(F)c(C(F)(F)F)c(F)c1)C(=O)O; hPhe(3-Cl-4-CF3) = N[C@@H](CCc1ccc(C(F)(F)F)c(Cl)c1)C(=O)O; NEtPhe(4-CF3) = CCN[C@@H](Cc1ccc(C(F)(F)F)cc1)C(=O)O; NMePhe(4-CF3) = CN[C@@H](Cc1ccc(C(F)(F)F)cc1)C(=O)O; 3Oxa8azabicyclo(3.2.1)octane = C1CC2COCC1N2*; NEtPhe(4-Me) = CCN[C@@H](Cc1ccc(C)cc1)C(=O)O; NMePhe(4-Me) = CN[C@@H](Cc1ccc(C)cc1)C(=O)O; Pro(4,4-F2) = O=C(O)[C@@H]1CC(F)(F)CN1; NMeCha = CN[C@@H](CC1CCCCC1)C(=O)O; NMehLeu = CN[C@@H](CCC(C)C)C(=O)O; Hyp = O=C(O)[C@@H]1C[C@@H](O)CN1; NEtLeu = CCN[C@@H](CC(C)C)C(=O)O; NMeChg = CN[C@H](C(=O)O)C1CCCCC1; NMeI = CC[C@H](C)[C@H](NC)C(=O)O; NMeD = CN[C@@H](CC(=O)O)C(=O)O; NMeL = CN[C@@H](CC(C)C)C(=O)O; Morpholide = C1CN(*)CCO1; NMeA = CN[C@@H](C)C(=O)O; Pyrrolidide = C1CCN(*)C1; Ac5c = NC1(C(=O)O)CCCC1; Aze = O=C(O)[C@@H]1CCN1; Sar = CNCC(=O)O

Legend:
[1] = system: Human pancreatic cancer cell line AsPC-1 (G12D mutation Kras); assay: AsPC-1 cell growth inhibition (AsPC-1 CGI); format: cell-based; details: read-out: AsPC-1 cell growth inhibition, 50% growth inhibitory concentration (IC50 value); 96 hours, CellTiter-Glo, values classified in ranges
Protocol: Test compounds were serially dilated with dimethyl sulfoxide, and 200 nL was then dispensed to a U-bottom 96-well plate using Labcyte Echo. […] The cell suspension was dispensed to a. plate containing a test compound at 100 μL per well and incubated at 37° C. in a 5% carbon dioxide gas incubator. 96 hours later, 80 μL of CellTiter-Glo (Promega) was added to each well and fluorescence was measured.

[2] = target: protein-protein interaction between Kras and SOS1 (biotin-tagged human Kras loaded with GDP, His-tagged human SOS1) (Homo sapiens (Human), UniProt P01116, G12D); assay: Protein-protein interaction inhibition between Kras and SOS1 (KrasG12D-SOS PPI) using AlphaScreen; format: biochemical; details: AlphaScreen; biotin-tagged human Kras loaded with GDP, His-tagged human SOS1; read-out: KRAS G12D-SOS PPI IC50;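 further: kras produced in E. coli, Ni-coupled donor beads and streptavidin acceptor beads, excitation 680 nm with emission detected at 520–620 nm via singlet oxygen transfer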

Structure (SMILES)	IC50 [1]	IC50 [2]
CCO[C@@H]1C[C@H]2C(=O)NC3(CCCC3)C(=O)N(C)[C@@H](C3CCCCC3)C(=O)N(C)[C@H](C(=O)N3C4CCC3COC4)CC(=O)N(C)[C@@H](CC(C)C)C(=O)N[C@@H]([C@@H](C)CC)C(=O)N(C)CC(=O)N(C)CC(=O)N(C)[C@@H](CC3CCCCC3)C(=O)N(C)CC(=O)N[C@@H](CCc3cc(F)c(C(F)(F)F)c(F)c3)C(=O)N2C1 [Compound 1341] ([NMeL]I[Sar][Sar][NMeCha][Sar][hPhe(3,5-F2-4-CF3)][Hyp](Et)[Ac5c][NMeChg][NMeD]-{3Oxa8azabicyclo(3.2.1)octane}; lactam N-11)	≤ 20 nM	0.82 nM
CC[C@H](C)[C@@H]1NC(=O)[C@H](CC(C)C)N(C)C(=O)C[C@@H](C(=O)N2CCOCC2)N(C)C(=O)[C@H]([C@@H](C)CC)N(C)C(=O)C2(CCCC2)NC(=O)[C@@H]2CC(F)(F)CN2C(=O)[C@H](CCc2cc(F)c(C(F)(F)F)c(F)c2)NC(=O)CN(C)C(=O)[C@H](Cc2ccc(C(F)(F)F)cc2)N(C)C(=O)[C@@H]2CCN2C(=O)[C@H](C)N(C)C1=O [Compound 1348] ([NMeL]I[NMeA][Aze][NMePhe(4-CF3)][Sar][hPhe(3,5-F2-4-CF3)][Pro(4,4-F2)][Ac5c][NMeI][NMeD]-Morpholide; lactam N-11)	≤ 20 nM	0.62 nM
CC[C@H](C)[C@@H]1NC(=O)[C@H](CC(C)C)N(C)C(=O)C[C@@H](C(=O)N2CCCC2)N(C)C(=O)[C@H]([C@@H](C)CC)N(C)C(=O)C2(CCCC2)NC(=O)[C@@H]2CCCN2C(=O)[C@H](CCc2cc(F)c(C(F)(F)F)c(F)c2)NC(=O)CN(C)C(=O)[C@H](Cc2ccc(C)cc2)N(CC)C(=O)[C@@H]2CCN2C(=O)[C@H](C)N(C)C1=O [Compound 1351] ([NMeL]I[NMeA][Aze][NEtPhe(4-Me)][Sar][hPhe(3,5-F2-4-CF3)]P[Ac5c][NMeI][NMeD]-Pyrrolidide; lactam N-11)	≤ 20 nM	0.82 nM
CC[C@H](C)[C@@H]1NC(=O)[C@H](CCC(C)C)N(C)C(=O)C[C@@H](C(=O)N2CCOCC2)N(C)C(=O)[C@H]([C@@H](C)CC)N(C)C(=O)C2(CCCC2)NC(=O)[C@@H]2CCCN2C(=O)[C@H](CCc2ccc(C(F)(F)F)c(Cl)c2)NC(=O)CN(C)C(=O)[C@H](Cc2ccc(C(F)(F)F)cc2)N(C)C(=O)[C@@H]2CCN2C(=O)[C@H](C)NC1=O [Compound 1356] ([NMehLeu]IA[Aze][NMePhe(4-CF3)][Sar][hPhe(3-Cl-4-CF3)]P[Ac5c][NMeI][NMeD]-Morpholide; lactam N-11)	≤ 20 nM	1.1 nM
CC[C@H](C)[C@@H]1NC(=O)[C@H](CC(C)C)N(C)C(=O)C[C@@H](C(=O)N2CCCC2)N(C)C(=O)[C@H]([C@@H](C)CC)N(C)C(=O)C2(CCCC2)NC(=O)[C@@H]2CCCN2C(=O)[C@H](CCc2ccc(C(F)(F)F)c(Cl)c2)NC(=O)CN(C)C(=O)[C@H](Cc2ccc(C(F)(F)F)cc2)N(C)C(=O)[C@@H]2CCN2C(=O)[C@H](C)NC1=O [Compound 1360] ([NMeL]IA[Aze][NMePhe(4-CF3)][Sar][hPhe(3-Cl-4-CF3)]P[Ac5c][NMeI][NMeD]-Pyrrolidide; lactam N-11)	≤ 20 nM	0.97 nM
CC[C@H](C)[C@@H]1NC(=O)[C@H](CC(C)C)N(C)C(=O)C[C@@H](C(=O)N2CCOCC2)N(C)C(=O)[C@H]([C@@H](C)CC)N(C)C(=O)C2(CCCC2)NC(=O)[C@@H]2CCCN2C(=O)[C@H](CCc2cc(F)c(C(F)(F)F)c(F)c2)NC(=O)CN(C)C(=O)[C@H](Cc2ccc(C(F)(F)F)cc2)N(C)C(=O)[C@@H]2CCN2C(=O)[C@H](C)N(C)C1=O [Compound 1362] ([NMeL]I[NMeA][Aze][NMePhe(4-CF3)][Sar][hPhe(3,5-F2-4-CF3)]P[Ac5c][NMeI][NMeD]-Morpholide; lactam N-11)	≤ 20 nM	0.81 nM
CC[C@H](C)[C@@H]1NC(=O)[C@H](CC(C)C)N(C)C(=O)C[C@@H](C(=O)N2CCOCC2)N(C)C(=O)[C@H]([C@@H](C)CC)N(C)C(=O)C2(CCCC2)NC(=O)[C@@H]2CCCN2C(=O)[C@H](CCc2cc(F)c(C(F)(F)F)c(F)c2)NC(=O)CN(C)C(=O)[C@H](Cc2ccc(C(F)(F)F)cc2)N(CC)C(=O)[C@@H]2CCN2C(=O)[C@H](C)N(C)C1=O [Compound 1364] ([NMeL]I[NMeA][Aze][NEtPhe(4-CF3)][Sar][hPhe(3,5-F2-4-CF3)]P[Ac5c][NMeI][NMeD]-Morpholide; lactam N-11)	≤ 20 nM	1.2 nM
CC[C@H](C)[C@@H]1NC(=O)[C@H](CC(C)C)N(CC)C(=O)C[C@@H](C(=O)N(C)C)N(C)C(=O)[C@H]([C@@H](C)CC)N(C)C(=O)C2(CCCC2)NC(=O)[C@@H]2CCCN2C(=O)[C@H](CCc2ccc(C(F)(F)F)c(Cl)c2)NC(=O)CN(C)C(=O)[C@H](Cc2ccc(C)cc2)N(C)C(=O)[C@@H]2CCN2C(=O)[C@H](C)N(C)C1=O [Compound 1365] ([NEtLeu]I[NMeA][Aze][NMePhe(4-Me)][Sar][hPhe(3-Cl-4-CF3)]P[Ac5c][NMeI][NMeD]-NMe2; lactam N-11)	≤ 20 nM	1.2 nM
